In patent publication US20260001864A1, “COMPOUND CONTAINING SULFAMIDE STRUCTURE, AND PREPARATION METHOD THEREFOR AND APPLICATION THEREOF, AND PHARMACEUTICAL COMPOSITION AND APPLICATION” (Nanjing Shuohui Pharmatechnology Co., Ltd, priority 2021, published 2026):
Counter-ions that a name gives are not always drawn.

Biological target: H+/K+-ATPase (rabbit gastric mucosal microsomes) (Oryctolagus cuniculus (Rabbit), UniProt P27112)
Assay: In vitro screening test of H+/K+-ATPase inhibition (malachite green)
Type: biochemical
Settings: pH 6.5, 37° C. 30 min, read-out: IC50, inhibitory effect on H+/K+-ATPase activity
Text: This test example evaluates the inhibitory effects of the compounds of the present invention on the activity of H+/K+-ATPase by an in vitro screening test, and expresses them with the IC50 values of the compounds (obtained by calculating the inhibition rates at different concentrations).
• Compound solutions: The products (i.e., the compounds or the hydrochloride salt of compounds) obtained in the foregoing preparation examples of the present invention were each independently dissolved in DMSO to form solutions at suitable concentrations; • Buffer I: 50 mmol/L HEPEs-Tris, pH=6.5, 5 mmol/L magnesium chloride, […] valinomycin (J&K Scientific Ltd., goods No.: 227304); • Buffer II: 50 mmol/L HEPEs-Tris, pH=6.5, 5 mmol/L magnesium chloride, […] valinomycin, 5 mmol/L potassium chloride; • 5-adenosine triphosphate (ATP, Sigma-Aldrich, goods No.: A2383) solution: Dilute ATP with buffer I to 5 mM; • Malachite green solution: Dissolve 0.12 wt % malachite green (J&K Scientific Ltd., goods No.: 913120) in 2.5 mol/L sulfuric acid, 7.5 wt % ammonium molybdate (J&K Scientific Ltd., goods No.: 128321) and 11% Tween 20(V/V). During use, sulfuric acid, ammonium molybdate and Tween 20 are mixed in a ratio of 100:25:2; • Rabbit gastric mucosal microsomes (rich in H+/K+-ATPase, self-extracted), extracted by sucrose gradient centrifugation: The rabbit stomach was washed with tap water and 3M NaCl solution, respectively, and then the surface water was removed with filter paper. A pre-cooled homogenization buffer (4 ml/g tissue) was added and homogenized for 2-5 min in a tissue homogenizer. After the homogenizing, if there are large tissue particles, they can be removed by centrifugation (600 g, 10 min). The supernatant was then transferred to a clean centrifuge tube and centrifuged at 20,000 g for 30 min, then the supernatant was transferred to a clean centrifuge tube and further centrifuged at 100,000 g for 90 min and the precipitate was collected; the precipitate was suspended in homogenate and blown evenly, and the protein concentration was measured by the Bradford's method and adjusted to 10 mg/ml; 7.5 wt % Ficoll's layering solution was added in equal proportions. After centrifugation at 100,000 g for 60 min, the middle layer (H^+/K^+-ATPase-enriched gastric membranes) was collected in a clean centrifuge tube, diluted with homogenate by 4-5 times, and then centrifuged at 100,000 g for another 90 min, and the precipitate was collected; the precipitate was suspended in homogenate and homogenized in a glass homogenizer, and the protein concentration was measured by the Bradford's method and adjusted to 22.5 mg/ml. It was frozen at −80° C. and stored for future use.
5 μL of rabbit gastric mucosal microsomes (H^+/K^+-ATPase) was added to 45 μL of buffer II, then 5 μL of compound solution was added, and then 5 μL of 5 mM ATP solution was added to start the reaction and pre-react at 37° C. for 30 min. 15 μL of malachite green solution was added to terminate the reaction, balancing was conducted at room temperature for 20 min, and read the optical absorbance at 620 nm.
Meanwhile, the reaction of the same volume was carried out without addition of potassium chloride as a background, which was subtracted when calculating enzymatic activity.

H+/K+-ATPase (rabbit gastric mucosal microsomes), sequence (P27112 whole entry): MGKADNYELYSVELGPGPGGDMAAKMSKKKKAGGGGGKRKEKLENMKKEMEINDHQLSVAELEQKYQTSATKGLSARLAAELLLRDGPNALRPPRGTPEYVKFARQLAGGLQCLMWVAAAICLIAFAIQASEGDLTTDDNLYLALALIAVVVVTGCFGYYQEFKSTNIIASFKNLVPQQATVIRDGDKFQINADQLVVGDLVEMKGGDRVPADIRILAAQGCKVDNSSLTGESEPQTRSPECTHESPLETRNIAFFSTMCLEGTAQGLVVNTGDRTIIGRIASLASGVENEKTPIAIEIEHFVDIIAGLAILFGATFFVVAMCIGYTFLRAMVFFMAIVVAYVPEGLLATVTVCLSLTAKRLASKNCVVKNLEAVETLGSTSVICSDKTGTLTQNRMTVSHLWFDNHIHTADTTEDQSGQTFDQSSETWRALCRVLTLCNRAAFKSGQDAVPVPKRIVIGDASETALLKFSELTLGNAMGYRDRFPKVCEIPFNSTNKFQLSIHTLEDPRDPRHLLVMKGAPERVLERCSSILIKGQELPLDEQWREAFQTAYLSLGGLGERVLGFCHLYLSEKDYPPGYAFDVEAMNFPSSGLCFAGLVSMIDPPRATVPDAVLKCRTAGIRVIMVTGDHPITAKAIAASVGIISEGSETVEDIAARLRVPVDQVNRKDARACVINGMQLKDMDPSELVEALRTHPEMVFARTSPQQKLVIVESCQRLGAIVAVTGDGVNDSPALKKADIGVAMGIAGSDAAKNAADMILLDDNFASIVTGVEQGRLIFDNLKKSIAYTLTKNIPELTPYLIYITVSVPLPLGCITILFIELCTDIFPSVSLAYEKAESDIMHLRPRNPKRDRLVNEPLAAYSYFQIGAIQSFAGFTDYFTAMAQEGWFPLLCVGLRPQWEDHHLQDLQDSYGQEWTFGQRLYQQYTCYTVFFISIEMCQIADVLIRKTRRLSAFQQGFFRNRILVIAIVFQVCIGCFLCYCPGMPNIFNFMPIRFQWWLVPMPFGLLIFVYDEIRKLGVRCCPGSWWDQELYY
H+/K+-ATPase (rabbit gastric mucosal microsomes), sequence (P18597 whole entry partner): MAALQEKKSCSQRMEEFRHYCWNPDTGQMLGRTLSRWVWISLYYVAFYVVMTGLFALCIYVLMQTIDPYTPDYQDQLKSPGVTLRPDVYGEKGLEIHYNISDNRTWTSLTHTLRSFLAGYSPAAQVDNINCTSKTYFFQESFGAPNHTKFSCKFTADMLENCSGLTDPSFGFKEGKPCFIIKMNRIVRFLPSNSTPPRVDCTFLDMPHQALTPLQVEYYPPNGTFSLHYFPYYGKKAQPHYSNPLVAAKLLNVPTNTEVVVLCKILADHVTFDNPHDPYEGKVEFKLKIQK

Structure (SMILES) | IC50 [nM]
CNCc1cc(-c2ccc(OC[C@@H]3COCCO3)cc2F)n(S(=O)(=O)c2cccnc2)c1 [Compound 1, (S)-1-(5-(4-((1,4-dioxane-2-yl)methoxy)-2-fluorophenyl)-1-(pyridine-3-ylsulfonyl)-1H-pyrrole-3-yl)-N-methyl methylamine hydrochloride] | 585
CNCc1cc(-c2ccc(OCC3CCC3)cc2F)n(S(=O)(=O)c2cccnc2)c1 [Compound 2] | 24.5
CNCc1cc(-c2ccc(OCC3CCCC3)cc2F)n(S(=O)(=O)c2cccnc2)c1 [Compound 3] | 20.9
CNCc1cc(-c2ccc(OCC3CCCCC3)cc2F)n(S(=O)(=O)c2cccnc2)c1 [Compound 4] | 30.9
CNCc1cc(-c2ccc(OCC3CCC(F)(F)CC3)cc2F)n(S(=O)(=O)c2cccnc2)c1 [Compound 5] | 82.4
CNCc1cc(-c2ccc(OCC3CCCCO3)cc2F)n(S(=O)(=O)c2cccnc2)c1 (centres unmarked) [Compound 7] | 254
CNCc1cc(-c2ccc(OC(C)C3CCOCC3)cc2F)n(S(=O)(=O)c2cc(F)cc(F)c2)c1 (centres unmarked) [Compound 9] | 25.4
CNCc1cc(-c2ccc(OC(C)C3CCOCC3)cc2F)n(S(=O)(=O)c2cccc(C(F)(F)F)c2)c1 (centres unmarked) [Compound 10] | 55.3
CNCc1cc(-c2ccc(OC(C)C3CCOCC3)cc2F)n(S(=O)(=O)c2ccc(C)c(F)c2)c1 (centres unmarked) [Compound 11] | 65.2
CNCc1cc(-c2ccc(OC(C)C3CCOCC3)cc2F)n(S(=O)(=O)c2cc(F)ccc2F)c1 (centres unmarked) [Compound 12] | 138
CNCc1cc(-c2ccc(OC(C)C3CCOCC3)cc2F)n(S(=O)(=O)c2cccc(C#N)c2)c1 (centres unmarked) [Compound 13] | 114
CNCc1cc(-c2ccc(OC(C)C3CCOCC3)cc2F)n(S(=O)(=O)c2cccc(OCCOC)c2)c1 (centres unmarked) [Compound 14, 1-(5-(2-fluoro-4-(1-(tetrahydro-2H-pyran-4-yl)ethoxy)phenyl)-1-((3-(2-methoxyethoxy)phenyl)sulfonyl)-1H-pyrrol-3-yl)-N-methylmethylamine-hydrochloride] | 443
CNCc1cc(-c2ccc(OC(C)C3CCOCC3)cc2F)n(S(=O)(=O)c2cccc(OC)c2)c1 (centres unmarked) [Compound 15] | 83.9
CNCc1cc(-c2ccc(OC(C)C3CCOCC3)cc2F)n(S(=O)(=O)c2c(F)cccc2F)c1 (centres unmarked) [Compound 16] | 253
CNCc1cc(-c2ccc(OC(C)C3CCOCC3)cc2F)n(S(=O)(=O)c2ccc(F)cc2F)c1 (centres unmarked) [Compound 17] | 265
CNCc1cc(-c2ccc(OC(C)C3CCOCC3)cc2F)n(S(=O)(=O)c2ccc(C#N)cc2)c1 (centres unmarked) [Compound 18] | 262
CNCc1cc(-c2ccc(OC(C)C3CCOCC3)cc2F)n(S(=O)(=O)c2cccc(F)c2)c1 (centres unmarked) [Compound 19] | 233
CNCc1cc(-c2ccc(OC(C)C3CCCCC3)cc2F)n(S(=O)(=O)c2cccnc2)c1 (centres unmarked) [Compound 20] | 294
CNCc1cc(-c2ccc(OCC3CCNCC3)cc2F)n(S(=O)(=O)c2cccnc2)c1 [Compound 21] | 2790
CNCc1cc(-c2ccc(OCC3CCN(C)CC3)cc2F)n(S(=O)(=O)c2cccnc2)c1 [Compound 22] | 458
CNCc1cc(-c2ccc(OCC3CCN(C(C)=O)CC3)cc2F)n(S(=O)(=O)c2cccnc2)c1 [Compound 23] | 908
CNCc1cc(-c2ccc(OCC3CCOCC3)cc2F)n(S(=O)(=O)c2cccc(F)c2)c1 [Compound 24] | 136
CNCc1cc(-c2ccc(OCC3CCOCC3)cc2F)n(S(=O)(=O)c2cccc(Cl)c2)c1 [Compound 25] | 58.5
CNCc1cc(-c2ccc(OCC3CCOCC3)cc2F)n(S(=O)(=O)c2ccc(C)c(F)c2)c1 [Compound 26] | 202
CNCc1cc(-c2ccc(OCC3CCOCC3)cc2F)n(S(=O)(=O)c2cc(F)cc(F)c2)c1 [Compound 27] | 38.7
CNCc1cc(-c2ccc(OCC3CCOCC3)cc2F)n(S(=O)(=O)c2ccc(C#N)cc2)c1 [Compound 29] | 290
CNCc1cc(-c2ccc(OCC3CCOCC3)cc2F)n(S(=O)(=O)c2cccc(OCCF)c2)c1 [Compound 30] | 474
CCCCCOc1cccc(S(=O)(=O)n2cc(CNC)cc2-c2ccc(OCC3CCOCC3)cc2F)c1 [Compound 31] | 1210

More lines, now with the values ahead:

IC50 [nM] | Structure (SMILES)
822 | CNCc1cc(-c2ccc(OCC3CCOCC3)cc2F)n(S(=O)(=O)c2cccc(OCCCOC)c2)c1 [Compound 32]
883 | CNCc1cc(-c2ccc(OC(C)C3CCOCC3)cc2F)n(S(=O)(=O)c2cccc(OCC3CCC3)c2)c1 (centres unmarked) [Compound 33]
285 | CNCc1cc(-c2ccc(OCC3CCOCC3)cc2F)n(S(=O)(=O)c2cccc(OCC3CCCC3)c2)c1 [Compound 34]
8650 | CNCc1cc(-c2ccc(OCC3CCCCC3)cc2F)n(S(=O)(=O)c2cccc(OCCF)c2)c1 [Compound 35]
2270 | CCCCCOc1cccc(S(=O)(=O)n2cc(CNC)cc2-c2ccc(OCC3CCCCC3)cc2F)c1 [Compound 36]
199 | CNCc1cc(-c2ccc(OC(C)C3CCOCC3)cc2F)n(S(=O)(=O)c2cccc(OCCCCOC)c2)c1 (centres unmarked) [Compound 38]
34.6 | CNCc1cc(-c2ccc(OCC3CCOCC3)cc2F)n(S(=O)(=O)c2cccc(C(F)(F)F)c2)c1 [Compound 39]
123 | CNCc1cc(-c2ccc(OC)cc2F)n(S(=O)(=O)c2cccnc2)c1 [Compound 40]
567 | CCOc1ccc(-c2cc(CNC)cn2S(=O)(=O)c2cccnc2)c(F)c1 [Compound 41]
401 | CNCc1cc(-c2ccc(OCC(F)F)cc2F)n(S(=O)(=O)c2cccnc2)c1 [Compound 42]
482 | CNCc1cc(-c2ccc(OCCCOC)cc2F)n(S(=O)(=O)c2cccnc2)c1 [Compound 43]
500 | CNCc1cc(-c2ccc(OCC(C)C)cc2F)n(S(=O)(=O)c2cccnc2)c1 [Compound 44]
204 | CNCc1cc(-c2ccc(OCC(C)(C)C)cc2F)n(S(=O)(=O)c2cccnc2)c1 [Compound 45]
639 | CCNCc1cc(-c2ccc(OCC3CCOCC3)cc2F)n(S(=O)(=O)c2cccnc2)c1 [Compound 46]
247 | CNCc1cc(-c2ccc(OC(C)C3CCOCC3)c(F)c2)n(S(=O)(=O)c2cccnc2)c1 (centres unmarked) [Compound 47]
146 | CNCc1cc(-c2ccc(OC[C@H]3CO3)cc2F)n(S(=O)(=O)c2cccnc2)c1 [Compound 49]
114 | CNCc1cc(-c2ccc(OC[C@@H]3CO3)cc2F)n(S(=O)(=O)c2cccnc2)c1 [Compound 50]
35.2 | CNCc1cn(S(=O)(=O)c2cccnc2)c(-c2ccc(OCC3CC3)cc2F)c1F [Compound 51]
372 | CNCc1cc(-c2ccc(OCC(C)(C)O)cc2F)n(S(=O)(=O)c2cccnc2)c1 [Compound 52]
56.1 | CNCc1cc(-c2ccc(OC[C@@H]3C[C@@H]3F)cc2F)n(S(=O)(=O)c2cccnc2)c1 [Compound 53]
17.8 | CNCc1cc(-c2ccc(OCc3cc(F)ccc3F)cc2F)n(S(=O)(=O)c2cccnc2)c1 [Compound 54]
8.6 | CNCc1cc(-c2ccc(OCc3ccc(F)cc3F)cc2F)n(S(=O)(=O)c2cccnc2)c1 [Compound 55]
13.3 | CNCc1cc(-c2ccc(OCc3c(F)cccc3F)cc2F)n(S(=O)(=O)c2cccnc2)c1 [Compound 56]
46.3 | CNCc1cc(-c2ccc(OCc3ccc(F)c(F)c3)cc2F)n(S(=O)(=O)c2cccnc2)c1 [Compound 57]
25.7 | CNCc1cc(-c2ccc(OCc3cc(F)cc(F)c3)cc2F)n(S(=O)(=O)c2cccnc2)c1 [Compound 58]
